Data: US20210169080A1, “HETEROCYCLE DERIVATIVES AS PESTICIDES” (Bayer Aktiengesellschaft, priority 2018, published 2021)

Experiments:
[1] = system: Phaedon cochleariae; assay: Phaedon cochleariae spray test; format: in vivo; settings: 100 g/ha, sprayed Chinese cabbage leaf discs, after 7 days
Method: (§1) [table] To produce a suitable active compound formulation, 1 part by weight of active compound is dissolved with the specified parts by weight of solvent and made up to the desired concentration with water containing an emulsifier concentration of 1000 ppm. To produce further test concentrations, the formulation is diluted with emulsifier-containing water. Discs of Chinese cabbage leaves (Brassica pekinensis) are sprayed with an active compound formulation of the desired concentration and, after drying, populated with larvae of the mustard beetle (Phaedon cochleariae). After 7 days, the efficacy in % is determined. 100% means that all the beetle larvae have been killed; 0% means that no beetle larvae have been killed.

[2] = system: Spodoptera frugiperda; assay: Spodoptera frugiperda spray test; format: in vivo; settings: 100 g/ha, sprayed maize leaf discs, after 7 days
Method: as §1, with “water. Leaf discs” for “water. Discs”, “of maize (Zea mays)” for “of Chinese cabbage leaves (Brassica pekinensis)”, “with caterpillars” for “with larvae”, “the fall armyworm (Spodoptera frugiperda).” for “the mustard beetle (Phaedon cochleariae).”, “the caterpillars” for “the beetle larvae”, “no caterpillar has” for “no beetle larvae have”

[3] = log P by reversed-phase HPLC (EEC Directive 79/831 Annex V.A8), acidic method; format: physicochemical; settings: HPLC on reversed-phase C18, acidic range, formic acid in water/acetonitrile; for chromatographic logP: reversed-phase C18 HPLC column
Method: The log P values were determined according to EEC Directive 79/831 Annex V.A8 by HPLC (high-performance liquid chromatography) on a reversed-phase column (C18) using the following methods: ^[a] […] Calibration was carried out using a homologous series of straight-chain alkan-2-ones (having 3 to 16 carbon atoms) with known log P values. The values between successive alkanones are determined by linear regression.

[4] = system: Ctenocephalides felis; assay: Ctenocephalides felis oral test; format: in vivo; settings: 100 ppm in citrated cattle blood, adult cat fleas, after 2 days
Method: Solvent: dimethyl sulfoxide To produce a suitable active compound formulation, 10 mg of active compound are mixed with 0.5 ml of dimethyl sulfoxide. Dilution with citrated cattle blood gives the desired concentration. About 20 unfed adult cat fleas (Ctenocephalides felis) are placed into a chamber which is closed at the top and bottom with gauze. A metal cylinder whose bottom end is closed with parafilm is placed onto the chamber. The cylinder contains the blood/active compound formulation, which can be imbibed by the fleas through the parafilm membrane. After 2 days, the kill in % is determined. 100% means that all of the fleas have been killed; 0% means that none of the fleas have been killed.

[5] = system: Myzus persicae; assay: Myzus persicae oral test; format: in vivo; settings: 4 ppm, oral uptake through parafilm, after 5 days
Method: [table] To produce a suitable active compound formulation, 1 part by weight of active compound is dissolved with the stated parts by weight of solvent and made up to the desired concentration with water. 50 μl of the active compound formulation are transferred into microtitre plates and made up to a final volume of 200 μl with 150 μl of IPL41 insect medium (33%+15% sugar). Subsequently, the plates are sealed with parafilm, which a mixed population of green peach aphids (Myzus persicae) within a second microtitre plate is able to puncture and imbibe the solution. After 5 days, the efficacy in % is determined. 100% means that all the aphids have been killed; 0% means that no aphids have been killed.

[6] = system: Diabrotica balteata; assay: Diabrotica balteata spray test; format: in vivo; settings: 160 μg/cavity, germinated wheat corns infested with beetle larvae, after 7 days
Method: [table] To produce a suitable active compound formulation, 1 part by weight of active compound is dissolved with the specified parts by weight of solvent and made up to the desired concentration with water containing an emulsifier concentration of 1000 ppm. To produce further test concentrations, the formulation is diluted with emulsifier-containing water. Pre-swollen wheat corns (Triticum aestivum) are incubated for one day in a multiwell plate filled with agar and a little water (5 seed corns per cavity). The germinated wheat corns are sprayed with an active compound formulation of the desired concentration. Subsequently, each cavity is infested with 10-20 Diabrotica balteata beetle larvae. After 7 days, the efficacy in % is determined. 100% means that all wheat plants have grown as in the untreated uninfested control; 0% means that no wheat plant has grown.

[7] = system: Rhipicephalus sanguineus; assay: Rhipicephalus sanguineus in vitro contact test with adult brown dog ticks; format: in vivo; settings: application rate 5 μg/cm^2 (=500 g ai/ha), after 48 h
Method: For the coating of the test tubes, 9 mg of active compound are first dissolved in 1 ml of acetone p.a. and then diluted to the desired concentration with acetone p.a. 250 μl of the solution are distributed homogeneously on the inner walls and the base of a 25 ml glass tube by turning and rocking on an orbital shaker (rocking rotation at 30 rpm for 2 h). With 900 ppm of active compound solution and internal surface area 44.7 cm^2, given homogeneous distribution, an area-based dose of 5 μg/cm^2 is achieved. After the solvent has evaporated off, the tubes are populated with 5-10 adult dog ticks (Rhipicephalus sanguineus), sealed with a perforated plastic lid and incubated in a horizontal position in the dark at room temperature and ambient humidity. After 48 h, efficacy is determined. To this end, the ticks are knocked to the base of the tube and incubated on a hotplate at 45-50° C. for not more than 5 min. Ticks which remain motionless on the base or move in such an uncoordinated manner that they are unable to deliberately avoid the heat by climbing upwards are considered to be dead or moribund. […] An efficacy of 100% means that all the ticks were dead or moribund. 0% efficacy means that none of the ticks were harmed.

[8] = system: Ctenocephalides felis; assay: Ctenocephalides felis in vitro contact test with adult cat fleas; format: in vivo; settings: application rate 5 μg/cm^2 (=500 g/ha), after 48 h
Method: For the coating of the test tubes, 9 mg of active compound are first dissolved in 1 ml of acetone p.a. and then diluted to the desired concentration with acetone p.a. 250 μl of the solution are distributed homogeneously on the inner walls and the base of a 25 ml glass tube by turning and rocking on an orbital shaker (rocking rotation at 30 rpm for 2 h). With 900 ppm of active compound solution and internal surface area 44.7 cm^2, given homogeneous distribution, an area-based dose of 5 μg/cm^2 is achieved. After the solvent has evaporated off, the tubes are populated with 5-10 adult cat fleas (Ctenocephalides felis), sealed with a perforated plastic lid and incubated in a horizontal position at room temperature and ambient humidity. After 48 h, efficacy is determined. To this end, the tubes are stood upright and the fleas are knocked to the base of the tube. Fleas which remain motionless at the base or move in an uncoordinated manner are considered to be dead or moribund. […] 100% efficacy means that all the fleas were dead or moribund. 0% efficacy means that no fleas were harmed.

[9] = system: Boophilus microplus; assay: Boophilus microplus injection test; format: in vivo; settings: 20 μg/animal injected into abdomen of engorged adult female cattle ticks, assessed after 7 days
Method: Solvent: dimethyl sulfoxide To produce a suitable active compound formulation, 10 mg of active compound are mixed with 0.5 ml of solvent and the concentrate is diluted to the desired concentration with solvent. 1 μl of the active compound solution is injected into the abdomen of 5 engorged adult female cattle ticks (Boophilus microplus). The animals are transferred into dishes and kept in a climate-controlled room. The activity is assessed after 7 days by laying of fertile eggs. Eggs which are not visibly fertile are stored in a climate-controlled cabinet until the larvae hatch after about 42 days. An efficacy of 100% means that none of the ticks has laid any fertile eggs; 0% means that all the eggs are fertile.

[10] = system: Myzus persicae; assay: Myzus persicae spray test; format: in vivo; settings: 100 g/ha, sprayed Chinese cabbage leaf discs, after 5 days
Method: as §1, with “pekinensis) infested by all stages of the green peach aphid (Myzus persicae)” for “pekinensis)”, “concentration.” for “concentration and, after drying, populated with larvae of the mustard beetle (Phaedon cochleariae).”, “5” for “7”, “aphids” for “beetle larvae”

Compound	efficacy (beetle larvae killed) [1]	efficacy (caterpillars killed) [2]	chromatographic logP [3]	efficacy (kill in %) [4]	efficacy (aphids killed) [5]	log P (acidic) [3]	efficacy (wheat plants grown as in uninfested control) [6]	efficacy (ticks dead or moribund) [7]	efficacy (fleas dead or moribund) [8]	efficacy (no laying of fertile eggs) [9]	efficacy (aphids killed) [10]
CCS(=O)(=O)c1c(-c2nc3cc(C(F)(F)F)ccc3o2)nc2cc(C3(C#N)CC3)ccn12 [Example 1-4]	100%	100%	3.22	–	–	–	–	–	–	–	–
CCS(=O)(=O)c1c(-c2nc3cc(S(=O)(=O)C(F)(F)F)ccc3o2)nc2cc(C3(C#N)CC3)ccn12 [Example 1-1, 1-[3-(Ethylsulfonyl)-2-{5-[(trifluoromethyl)sulfonyl]-1,3-benzoxazol-2-yl}imidazo-[1,2-a]pyridin-7-yl]cyclopropanecarbonitrile]	100%	100%	3.18	95%	100%	–	–	–	–	–	–
CCS(=O)(=O)c1c(-c2nc3cc(C(F)(F)C(F)(F)F)ccc3o2)nc2cc(C3(C#N)CC3)ccn12 [Example 1-6, 1-[3-Ethylsulfonyl-2-[5-(l, 1,2,2,2-pentafluoroethyl)-1,3-benzoxazol-2-yl]imidazo [1,2-a]pyridin-7-yl]cyclopropanecarbonitrile]	–	–	–	–	–	3.68	–	–	–	–	–
CCS(=O)(=O)c1c(-c2nc3cc(OC(F)(F)F)ccc3o2)nc2cc(C3(C#N)CC3)ccn12 [Example 1-5, 1-[3-Ethylsulfonyl-2-[5-(trifluoromethoxy)-1,3-benzoxazol-2-yl]imidazo[1,2-a]pyridin-7-yl]cyclopropanecarbonitrile]	–	83%	3.29	–	–	–	100%	–	–	–	–
CCS(=O)(=O)c1c(-c2nc3cc(SC(F)(F)F)ccc3o2)nc2cc(C3(C#N)CC3)ccn12 [Example 1-3, 1-[3-(Ethylsulfonyl)-2-{5-[(trifluoromethyl)sulfanyl]-1,3-benzoxazol-2-yl}imidazo-[1,2-a]pyridin-7-yl]cyclopropanecarbonitrile]	100%	100%	3.63	100%	–	–	–	80%	100%	90%	–
CCS(=O)(=O)c1c(-c2nc3cc([S+]([O-])C(F)(F)F)ccc3o2)nc2cc(C3(C#N)CC3)ccn12 (stereo not shown) [Example 1-2, 1-[3-(ethylsulfonyl)-2-{5-[(trifluoromethyl)sulfinyl]-1,3-benzoxazol-2-yl}imidazo[1,2-a]pyridin-7-yl]cyclo-propanecarbonitrile]	100%	100%	2.67	100%	100%	–	–	–	–	–	100%
